Each structure is given as a SMILES string.

The values that follow come from EP0206747B1, “1,4-Dihydropyridine derivatives useful in the treatment of cardiovascular disorders, and a process for producing the derivatives” (WARNER-LAMBERT COMPANY, priority 1985, dated 1986).

The test system of one assay is Isolated Guinea Pig Atria. Kind of assay: In vitro myocardial inotropic activity in isolated guinea pig atria. It is filed as cell-based, guinea pigs. To be noted: @ 10^-5M; isolated guinea pig left atria electrically stimulated at 1.5 Hz, PSS 30°C. How it is done:
Test for In Vitro Myocardial Inotropic Activity
in Isolated Guinea Pig Atria
Adult male guinea pigs weighing 300-400 g are reserpenized (2000 units i.p.) and, after ten minutes, are killed by cervical dislocation. The hearts are quickly removed and placed in a physiological salt solution (PSS) containing: 118 mM NaCI, 4.8 mM KCI, 2.4 mM CaCI, 1.2 mM MgS04, 1.0 mM NaH2P04, 11.1 m dextrose, and 27.2 mM NaHC03, maintained at pH 7.4 and 30°C. After removing all superficial blood, the hearts are perfused via the aorta to remove any blood from the coronary arteries. After five to ten minutes of perfusion, the left atria are dissected and mounted vertically in a 50 ml, water-jacketed bather containing PSS at 30°C and continuously oxygenated with 95% O2/5% CO2. The left atria are electrically stimulated at 1.5 Hz. The tissues are equilibrated for 30 minutes and washed with fresh PSS. The stimulation voltage is adjusted to 20% above the threshold and tension adjusted to Lmax (the muscle length at which tension development is maximal). The tissues are then equilibrated for an additional 30 minutes, after which the compounds to be examined are added to the tissue bather. […] The compounds are added in full or half-log concentration increments, usually over a concentration range of 1 x 10-^8 to 1 x 10-^4M. The muscles are generally allowed to assume a new steady-state contractile response before each subsequent addition of drug.
Using this procedure the inotropic activity of preferred compounds of the present invention is shown as found in the following Table 1. The reference calcium antagonist has also been tested for comparison.
With `CCOC(=O)C1=C(C[S+]([O-])c2ccccc2)NC(C)=C(C#N)C1c1ccccc1C(F)(F)F` (single isomer, unassigned) [Example 2 Isomer B, Ethyl 5-cyano-1,4-dihydro-6-methyl-2-[(phenylsulfinyl)methyl]-4-[2-(trifluoromethyl)phenyl]-3-pyridinecarboxylate], the “% Change in Myocardial Contractility (PSCI)” value was “+53%”.

Staying with this assay, now noted: Cavia porcellus, @ 10^-5M; isolated guinea pig left atria electrically stimulated at 1.5 Hz, PSS 30°C; read-out: % Change in Myocardial Contractility (PSCI).
With `CCOC(=O)C1=C(C[S+]([O-])c2ccccc2)NC(C)=C(C#N)C1c1cccc([N+](=O)[O-])c1` (stereo not shown) [Example 2B], the activation at 10 µM is 30%.

Consider `CCOC(=O)C1=C(C[S+]([O-])c2ccccc2)NC(C)=C(C#N)C1c1ccccc1Cl` (stereo not shown) [Example 2D], for which the activation at 10 µM worked out at 26%.

Consider `CCOC(=O)C1=C(C[S+]([O-])c2ccccc2)NC(C)=C(C#N)C1c1ccccc1C(F)(F)F` (single isomer, unassigned) [Example 2 Isomer A, Ethyl 5-cyano-1,4-dihydro-6-methyl-2-[(phenylsulfinyl)methyl]-4-[2-(trifluoromethyl)phenyl]-3-pyridinecarboxylate], for which the activation at 10 µM was 33%.

As for `CCOC(=O)C1=C(CS(=O)(=O)c2ccccc2)NC(C)=C(C#N)C1c1ccccc1C(F)(F)F` (stereo not shown) [Example 3A, Ethyl 5-cyano-1,4-dihydro-6-methyl-2-[(phenylsulfonyl)methyl]-4-[2-(trifluoromethyl)phenyl]-3-pyridinecarboxylate], the activation at 10 µM stood at 26%.

Turning to `CCOC(=O)C1=C(CS(=O)(=O)c2ccccc2Cl)NC(C)=C(C#N)C1c1ccccc1C(F)(F)F` (stereo not shown) [Example 3D], the activation at 10 µM is 33%.

Take `CCOC(=O)C1=C(CS(=O)(=O)c2ccccc2C)NC(C)=C(C#N)C1c1ccccc1C(F)(F)F` (stereo not shown) [Example 3C]: the activation at 10 µM worked out at 33%.
